Experimental data reported in the supplement of paper PMC10331698.
± gives the standard deviation of the averaged measurements.

Experiments:
Experiment in all cases: level (log10 ratio to DMSO vehicle control); higher = higher biomarker level / cell amount than vehicle control
[1] = compound: C=C(C)C(=O)OCCC(F)(F)C(F)(F)C(F)(F)C(F)(F)C(F)(F)C(F)(F)F [6:2 Fluorotelomer methacrylate]; conditions: in DMSO
Method: (§1)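 BioMAP Diversity Plus panel of 12 human primary cell co-culture systems (3C, 4H, LPS, SAg, BT, BF4T, BE3C, CASM3C, HDF3CGF, KF3CT, MyoF, Mphg). Compounds were added 1 h before stimulation and left for 24 h (MyoF 48 h; BT 72 h for soluble read-outs or 6 d for IgG). Biomarkers were read by ELISA, cytotoxicity by SRB, PBMC viability and proliferation by Alamar Blue. Each well value was divided by the mean of 8 DMSO control wells on the same plate and log10 transformed; duplicate blinded samples were tested at 4 concentrations.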

[2] = compound: C=CC(=O)OCC(F)(F)C(F)(F)C(F)(F)COC(=O)C=C [1H,1H,5H,5H-Perfluoro-1,5-pentanediol diacrylate]; conditions: 6700 nM; in DMSO
Method: as §1

[3] = compound: FC(F)(F)C(F)(F)C(F)(F)C(F)(F)C(F)(F)C(F)(F)CC1CO1 [3-(Perfluorohexyl)-1,2-epoxypropane]; conditions: in DMSO
Method: as §1

Octafluoroadipamide = compound: NC(=O)C(F)(F)C(F)(F)C(F)(F)C(F)(F)C(N)=O [Octafluoroadipamide]; conditions: in DMSO
Method: as §1

[4] = compound: O=C(O)C(F)(F)C(F)(F)C(F)(F)C(F)(F)C(F)(F)C(F)(F)C(F)(F)C(F)(F)C(F)(F)C(F)F [11-H-Perfluoroundecanoic acid]; conditions: in DMSO
Method: as §1

[5] = compound: O=S(=O)(Cl)C(F)(F)C(F)(F)C(F)(F)C(F)(F)C(F)(F)C(F)(F)C(F)(F)C(F)(F)F [Perfluoro-1-octanesulfonyl chloride]; conditions: in DMSO
Method: as §1

Hexafluoroamylene glycol = compound: OCC(F)(F)C(F)(F)C(F)(F)CO [Hexafluoroamylene glycol]; conditions: in DMSO
Method: as §1

Test System	level (log10) ([1]; 6700 nM)	level (log10) ([1]; 20000 nM)	level (log10) ([1]; 60000 nM)	level (log10) [2]	level (log10) ([3]; 6700 nM)	level (log10) ([3]; 20000 nM)	level (log10) ([3]; 60000 nM)	level (log10) (Octafluoroadipamide; 6700 nM)	level (log10) (Octafluoroadipamide; 20000 nM)	level (log10) (Octafluoroadipamide; 60000 nM)	level (log10) ([4]; 6700 nM)	level (log10) ([4]; 20000 nM)	level (log10) ([5]; 6700 nM)	level (log10) ([5]; 20000 nM)	level (log10) ([5]; 60000 nM)	level (log10) (Hexafluoroamylene glycol; 6700 nM)	level (log10) (Hexafluoroamylene glycol; 20000 nM)	level (log10) (Hexafluoroamylene glycol; 60000 nM)
BT:PBMC Cytotoxicity	0.0045 ± 0.021	0.018 ± 0.03	0.0285 ± 0.032	-0.201 ± 0.0092	-0.016 ± 0.0028	-0.017 ± 0.025	0.0175 ± 0.016	0.0125 ± 0.0021	0.018 ± 0.011	0.005 ± 0.051	0.0055 ± 0.0035	0.0375 ± 0.0064	0.0495 ± 0.016	0.055	0.114 ± 0.0021	0.008 ± 0.024	0.008 ± 0.0057	-0.005 ± 0.0099
BT:Secreted IgG	0.0165 ± 0.00071	-0.0065 ± 0.005	-0.0095 ± 0.023	-0.565 ± 0.17	-0.0085 ± 0.032	-0.0035 ± 0.018	-0.0005 ± 0.018	0.0345 ± 0.018	0.037 ± 0.0028	0.0215 ± 0.0078	0.007 ± 0.021	0.0175 ± 0.0092	-0.033 ± 0.0042	-0.0265 ± 0.039	-0.042 ± 0.034	0.022 ± 0.048	0.0275 ± 0.037	0.023 ± 0.017
BT:sIL-2	0.0005 ± 0.012	-0.0195 ± 0.053	-0.036 ± 0.025	-0.651 ± 0.08	-0.0165 ± 0.049	0.0215 ± 0.0035	0.007	0.137 ± 0.073	0.116 ± 0.061	0.126 ± 0.027	-0.0265 ± 0.013	-0.008 ± 0.083	0.0385 ± 0.047	0.104 ± 0.042	0.13 ± 0.018	0.0335 ± 0.022	0.0145 ± 0.054	0.0365 ± 0.056
BT:sIL-6	0.017 ± 0.014	0.059 ± 0.017	-0.004 ± 0.089	-0.692 ± 0.031	0.007 ± 0.079	0.014 ± 0.025	-0.019 ± 0.02	0.0215 ± 0.037	0.024 ± 0.0057	0.0065 ± 0.016	-0.033 ± 0.034	-0.0465 ± 0.046	0.0135 ± 0.016	0.043 ± 0.025	0.0195 ± 0.033	0.0575 ± 0.0078	0.015 ± 0.031	0.014 ± 0.021
BT:sIL-17A	-0.058 ± 0.16	0.028 ± 0.099	-0.078 ± 0.04	-1.14 ± 0.22	-0.0215 ± 0.057	-0.0315 ± 0.12	-0.041 ± 0.11	-0.107 ± 0.018	-0.0535 ± 0.098	0.0055 ± 0.025	0.003 ± 0.0057	-0.0485 ± 0.061	-0.0095 ± 0.08	0.0335 ± 0.071	-0.084 ± 0.15	-0.089 ± 0.0014	-0.0745 ± 0.0064	0.0015 ± 0.05
BT:sTNF-alpha	-0.0045 ± 0.0035	0.0045 ± 0.012	-0.068 ± 0.058	-0.94 ± 0.21	0.013 ± 0.11	0.128 ± 0.0064	0.0765 ± 0.14	0.058 ± 0.23	0.116 ± 0.098	0.194 ± 0.077	0.016 ± 0.059	-0.051 ± 0.024	0.067 ± 0.042	0.126 ± 0.016	0.102 ± 0.16	0.0165 ± 0.037	0.0085 ± 0.022	0.0215 ± 0.064
LPS:IL-1alpha	-0.0225 ± 0.079	-0.0355 ± 0.022	0.052 ± 0.0042	-0.078 ± 0.038	0.003 ± 0.018	0.012 ± 0.041	0.028 ± 0.027	0.0005 ± 0.012	0.02 ± 0.017	-0.0045 ± 0.00071	-0.022 ± 0.011	0.004 ± 0.031	0.0255 ± 0.018	-0.0115 ± 0.039	-0.063 ± 0.12	0.047 ± 0.035	-0.0045 ± 0.0035	0.03 ± 0.048
LPS:M-CSF	0.0215 ± 0.025	0.0305 ± 0.0064	0.0275 ± 0.028	-0.0655 ± 0.026	-0.004 ± 0.0099	-0.013 ± 0.0028	0.0055 ± 0.0035	-0.029 ± 0.14	0.0205 ± 0.052	0.023 ± 0.047	-0.0035 ± 0.018	0.012 ± 0.038	-0.079 ± 0.045	-0.0105 ± 0.025	0.116 ± 0.035	-0.0075 ± 0.016	0.0115 ± 0.0078	-0.003 ± 0.035
LPS:SRB	-0.003 ± 0.0042	-0.0035 ± 0.0064	-0.0025 ± 0.00071	-0.02 ± 0.0042	-0.0045 ± 0.0035	-0.003	-0.002 ± 0.0057	-0.003 ± 0.011	-0.0075 ± 0.0092	0.0015 ± 0.0035	0.0045 ± 0.013	0.0055 ± 0.005	0.0035 ± 0.0035	0.005 ± 0.0028	-0.043 ± 0.023	-0.004 ± 0.0028	-0.0095 ± 0.015	0.002 ± 0.018
LPS:sPGE2	0.0125 ± 0.0078	0.027 ± 0.0099	0.0025 ± 0.046	-0.105 ± 0.028	0.022 ± 0.0057	-0.0655 ± 0.0035	-0.047 ± 0.0099	0.083 ± 0.037	-0.04 ± 0.018	-0.0165 ± 0.026	0.018 ± 0.023	-0.006 ± 0.042	0.0585 ± 0.0078	-0.02 ± 0.016	-0.272 ± 0.03	-0.0265 ± 0.022	-0.0255 ± 0.071	-0.0325 ± 0.054
LPS:sTNF-alpha	0.031 ± 0.028	0.0415 ± 0.021	0.0405 ± 0.022	-0.008 ± 0.0057	0.063 ± 0.034	0.09 ± 0.0028	0.103 ± 0.011	0.047 ± 0.018	0.0355 ± 0.018	0.037 ± 0.0042	0.0065 ± 0.0092	0.0135 ± 0.0035	-0.0175 ± 0.044	-0.002 ± 0.045	-0.026 ± 0.052	0.0025 ± 0.012	-0.009 ± 0.014	-0.001 ± 0.0099
SAg:CCL2/MCP-1	-0.001 ± 0.058	0 ± 0.025	0.0135 ± 0.005	-0.13 ± 0.04	-0.0075 ± 0.012	0.0005 ± 0.0021	0.003 ± 0.016	-0.001 ± 0.0071	0.002 ± 0.0014	0.0105 ± 0.016	-0.0105 ± 0.022	-0.0125 ± 0.0035	-0.028 ± 0.017	0.0005 ± 0.025	0.041 ± 0.0028	-0.012	-0.002 ± 0.011	-0.016 ± 0.0099
SAg:CD38	-0.0075 ± 0.011	0.015 ± 0.038	0.0005 ± 0.029	-0.0655 ± 0.046	0.001 ± 0.014	0.0035 ± 0.00071	-0.015 ± 0.0042	0.0005 ± 0.00071	0.0005 ± 0.018	0.0065 ± 0.0021	-0.0045 ± 0.023	0.004 ± 0.04	-0.0105 ± 0.00071	-0.018 ± 0.0014	-0.058 ± 0.027	-0.02 ± 0.034	-0.03 ± 0.025	-0.0275 ± 0.046
SAg:CD40	-0.024 ± 0.04	-0.0255 ± 0.028	-0.0315 ± 0.012	-0.14 ± 0.033	-0.008 ± 0.013	-0.0135 ± 0.012	-0.018 ± 0.013	-0.002 ± 0.0028	-0.001 ± 0.0014	-0.001 ± 0.024	-0.024	-0.0355 ± 0.012	0.002 ± 0.0071	-0.015 ± 0.0028	-0.078 ± 0.034	-0.0285 ± 0.03	-0.011 ± 0.044	-0.0215 ± 0.04
SAg:CD62E/E-Selectin	-0.011 ± 0.038	0.0105 ± 0.015	0.0105 ± 0.0064	-0.469 ± 0.1	-0.008 ± 0.018	0.0005 ± 0.0035	-0.012 ± 0.027	0.0015 ± 0.0078	0.0065 ± 0.022	0.0185 ± 0.028	0.007 ± 0.021	0.0035 ± 0.005	-0.0055 ± 0.013	0.0155 ± 0.019	0.127 ± 0.016	-0.0415 ± 0.039	-0.0015 ± 0.0035	-0.0135 ± 0.00071
SAg:CD69	-0.001 ± 0.0014	-0.0035 ± 0.00071	-0.013 ± 0.024	-0.181 ± 0.073	0.013 ± 0.0042	0.011 ± 0.011	0.0035 ± 0.00071	-0.0095 ± 0.011	-0.013 ± 0.018	0.002 ± 0.013	-0.01 ± 0.028	-0.0235 ± 0.047	-0.011 ± 0.0099	-0.049 ± 0.04	-0.0795 ± 0.049	-0.039 ± 0.042	-0.0215 ± 0.023	-0.024 ± 0.048
SAg:PBMC Cytotoxicity	-0.0305 ± 0.057	0.0085 ± 0.0021	0.015 ± 0.0099	-0.111 ± 0.0035	0.01 ± 0.037	-0.0055 ± 0.011	0.025 ± 0.0071	0.004 ± 0.014	-0.0095 ± 0.0021	0.01 ± 0.027	0.002 ± 0.045	0.0035 ± 0.021	0.01 ± 0.025	0.0045 ± 0.016	0.067 ± 0.0085	0.0135 ± 0.00071	0.008 ± 0.014	0.005 ± 0.03
SAg:Proliferation	-0.027 ± 0.034	-0.0435 ± 0.042	-0.0375 ± 0.03	-0.421 ± 0.035	0.013 ± 0.014	-0.0105 ± 0.019	0.013 ± 0.051	0.022 ± 0.035	-0.0255 ± 0.005	0.033 ± 0.0099	-0.0145 ± 0.03	0.019 ± 0.0071	0.0235 ± 0.044	0.0205 ± 0.04	0.0395 ± 0.036	-0.024 ± 0.041	-0.0395 ± 0.013	-0.039 ± 0.0042
SAg:SRB	0 ± 0.0057	-0.003 ± 0.0042	-0.005 ± 0.0071	-0.0015 ± 0.012	-0.007 ± 0.0099	-0.012 ± 0.0042	0.006 ± 0.016	-0.011 ± 0.014	-0.0065 ± 0.022	-0.0025 ± 0.0064	0.0155 ± 0.005	0.0035 ± 0.011	-0.001 ± 0.0042	-0.0045 ± 0.011	-0.107 ± 0.033	-0.0015 ± 0.00071	-0.004 ± 0.0028	-0.0005 ± 0.019
